Experiment [1] addresses T1, TRK A, B & C kinase.
T1 construct: fused on or other part: Carna's Trk kinases are usually GST-tagged cytoplasmic domains
The experiment is described as follows: TRK A, B & C kinase assay (ADP-Glo / HTRF KinEASE-TK). In kind it is biochemical. The note with it: ADP-Glo or HTRF KinEASE-TK kit, isoform not specified, read-out: IC50 (nM) Enzymatic assay. As for the experimental part: ADP-Glo assay kit was purchased from Promega. poly (Glu, Tyr), Magnesium sulfate, Bovine serum albumin (BSA) and dimethylsulfoxide(DMSO) were purchased from Sigma-Aldrich. Tris-HCl buffer was purchased from BD Gentest. HTRF KinEASE-TK kit was purchased from cisbio. TRK A, B & C kinase was purchased from Carna bioscience.
Kinase assay was performed for Chemical Compounds 1-61 using two methods using luminescent ADP-Glo assay kit (Promega) and HTRF KinEASE-TK assay kit (cisbio). The luminescent ADP-Glo assay kit (Promega) measures ADP formed from a kinase reaction. ADP converted into ATP, which is then converted into light by Ultra-Glo luciferase. The HTRF KinEASE-TK assay kit (cisbio) measures tyrosine kinase activities using one substrate and a universal detection system.
ADP-Glo Assay Kit (Promega)
The protein kinase assay was performed for Chemical Compounds 1-61 at […] concentrations are 0.4 ng/ul of TrKA, 0.5 ng/ul of TrKB and 3 ng/ul of TrKC, respectively), 5 μL of 1 ug/ul stock solution of poly(glu, Tyr), 5 μL of compounds or assay buffer, 5 μL of ATP (125 μM stock solution).
The assay was started by incubating the reaction mixture in a 96-well plate at 30° C. for 1 hr. After the incubation, the assay was terminated by the addition of 25 […] Detection Reagent was added, and the 96-well plate was shaken and then incubated for additional 30 min at ambient temperature. The 96-well reaction plate was then read on an Enspire plate reader. The IC50 values were derived through a curve fitting using SigmaPlot.
HTRF KinEASE-TK Assay Kit (Cisbio)
The HTRF KinEASE-TK assay was performed for Chemical Compounds 1-61 in 384-well low volume microplate (Greiner). The HTRF KinEASE-TK assay format involves the two steps. The first step is kinase reaction step. This kinase reaction step was performed at RT (room temperature) in final volume of 10 ul according to the following assay reaction recipe: 10 ul of kinase mixture (Kinase (2 ul)+ATP (2 ul)+Substrate (2 ul)+Compound (4 ul)). Kinase final concentrations were 0.3 ng/ul of TRKA, 0.1 ng/ul of TRKB, 0.03 ng/ul of TRKC, respectively. ATP final concentrations were 14.7 uM (TRKA), 4.77 uM (TRKB), 25.6 uM (TRKC) respectively. TK-substrate final concentration was 0.3 ng/ul. The mixtures exposed to Dose response concentration (DRC) compound from 0 to 100 nM for 40 min. During the kinase reaction step, the kinase reaction was started by the addition of ATP. Kinase phosphorylates the substrate.
The second is detection step. 10 ul of detection reagents (5 ul Sa-XL 665 in EDTA+5 ul TK Antibody-Eu in EDTA) was added to kinase mixture. This step was performed at room temperature for 1 hr. The detection reagent detects phosphorylated substrates.
Finally 384-well reaction plate was then read on FlexStation 3 machine. The fluorescence was measured at 620 nm (Cryptate) and 665 nm (XL665). A ratio is calculated ([…]/620)×10^4 for each well. The IC50 value was derived through a curve fitting using GraphPad Prism. Table 1 below includes the results of the assays.
(In general: ADP-Glo first removes unused ATP, then detects ADP through luciferase.)

Experiment [2] has as its system TF-1 cells. Description: Cell proliferation assay (TF-1). The note with it: 10 ng/ml human β-NGF, 72 hours exposure, read-out: IC50 (nM) Cell-based assay (TF-1). As for the experimental part:
(§1) Doxorubicin was purchased from Sigma Aldrich (D1515). All compounds were diluted in DMSO (Sigma Aldrich, D2650). AlamarBlue® cell viability reagent was purchased from Thermo Scientific (88952). CellTiter 96® AQueous One Solution Cell proliferation assay was purchased from Promega. KM12-luc cells were obtained from JCRB (National Institute of Health Sciences, Tokyo, Japan). They were maintained in DMEM medium (GIB-11965-118) supplemented with 10% fetal bovine serum (Gibco, 16000-044) and MEM Non-Essential Amino Acids Solution (Thermo Scientific, 11140-050). TF-1 cells were obtained from ATCC. They were maintained in RPMI medium (GIB-A10491) supplemented with 10% fetal bovine serum (Gibco, 16000-044), GM-CSF (Thermo Scientific, 11140-050), and β-NGF (R&D systems). Trypsin/EDTA was purchased from Gibco (GIB-25300-054, 0.05%). 96-well plates were purchased from Corning Inc.
(§2) The proliferation assay was performed for Chemical Compounds 1-61 s in media supplemented with 10% FBS, using AlamarBlue® cell viability reagent or CellTiter 96® AQueous One Solution Cell proliferation assay kit. Cells were cultured in humidified 37° C. incubator with 5% CO2. To evaluate the antiproliferation activity of compounds, TF-1 cells were adjusted to GM-CSF free media (RPMI, 10% FBS, and 1% penicillin-streptomycin) for 16 hr and were seeded in 96-well plates at 30,000 cells/well with medium (RPMI, 10% FBS, 1% penicillin-streptomycin and 10 ng/ml human β-NGF). KM12-luc were seeded at 10,000 cells per well into 96-well plates. After overnight incubation, serial dilutions of compounds were added to triplicate wells, and cells were exposed for 72 hours. The final concentration of DMSO was adjusted to 0.5% in media. Quantitation of cell growth was assessed using two kinds of reagent. 20 ul of AlamarBlue® reagent in an amount equal to 10% of the culture volume was added to each well and were incubated in humidified 37° C. incubator with 5% CO2 for 2 hr. Otherwise, 20 ul of CellTiter 96® reagent was added to each well and were incubated in the same conditions as previously described. Data were plotted, and GI50 values were calculated using GraphPad software. Table 1 below includes the results of the assays.

Experiment [3] concerns KM12-luc cells. Description: Cell proliferation assay (KM12). The note with it: 72 hours exposure, read-out: IC50 (nM) Cell-based assay (KM12). On the procedure:
as §1, §2

For `CC(C)c1nnc(-c2cnn3ccc(N4CCCC4c4cncc(F)c4)nc23)s1` (stereo not drawn) [Chemical Compound 13, 2-(5-(2-(5-fluoropyridin-3-yl)pyrrolidin-1-yl)pyrazolo[1,5-a]pyrimidin-3-yl)-5-isopropyl-1,3,4-thiadiazole], the IC50 – broadly, the concentration that inhibits the measured activity by half – in experiment [1] was less than 10 nM; in experiment [2] it was less than 100 nM; in experiment [3], less than 100 nM.

On to `Fc1cncc(C2CCCN2c2ccn3ncc(-c4nnc(C5CC5)s4)c3n2)c1` (stereo not drawn) [Chemical Compound 14, 2-cyclopropyl-5-(5-(2-(5-fluoropyridin-3-yl)pyrrolidin-1-yl)pyrazolo[1,5-a]pyrimidin-3-yl)-1,3,4-thiadiazole], for which the half-maximal inhibitory concentration (IC50) in experiment [1] is less than 10 nM; in experiment [2] it was less than 100 nM; in experiment [3], less than 100 nM.

For `CC(C)(C)c1nnc(-c2cnn3ccc(N4CCCC4c4cncc(F)c4)nc23)s1` (stereo not drawn) [Chemical Compound 15, 2-tert-butyl-5-(5-(2-(5-fluoropyridin-3-yl)pyrrolidin-1-yl)pyrazolo[1,5-a]pyrimidin-3-yl)-1,3,4-thiadiazole], the half-maximal inhibitory concentration (IC50) in experiment [1] is less than 10 nM; in experiment [2], less than 100 nM; in experiment [3], less than 100 nM.

In the case of `CC(C)(C)c1nnc(-c2cnn3ccc(N4CCCC4c4cncc(F)c4)nc23)o1` (stereo not drawn) [Chemical Compound 16, 2-tert-butyl-5-(5-(2-(5-fluoropyridin-3-yl)pyrrolidin-1-yl)pyrazolo[1,5-a]pyrimidin-3-yl)-1,3,4-oxadiazole], the half-inhibitory concentration (IC50) in experiment [1] is less than 10 nM; in experiment [2] it was less than 100 nM; in experiment [3], less than 100 nM.

`CC(C)c1nnc(-c2cnn3ccc(N4CCC[C@@H]4c4cncc(F)c4)nc23)s1` [Chemical Compound 17, (R)-2-(5-(2-(5-fluoropyridin-3-yl)pyrrolidin-1-yl)pyrazolo[1,5-a]pyrimidin-3-yl)-5-isopropyl-1,3,4-thiadiazole]: the 50% inhibitory concentration (IC50) in experiment [1], in experiment [2] and in experiment [3] was less than 10 nM throughout.

On to `CC(C)(C)c1nnc(-c2cnn3ccc(N4C[C@@H](F)C[C@@H]4c4cc(F)ccc4F)nc23)o1` [Chemical Compound 26, 2-tert-butyl-5-(5-((2R,4S)-2-(2,5-difluorophenyl)-4-fluoropyrrolidin-1-yl)pyrazolo[1,5-a]pyrimidin-3-yl)-1,3,4-oxadiazole], for which the IC50 in experiment [1], in experiment [2] and in experiment [3] was less than 10 nM in each case.

As for `CC(C)(C)c1nnc(-c2cnn3ccc(N4C[C@@H](F)C[C@H]4c4cc(F)ccc4F)nc23)o1` [Chemical Compound 27, 2-tert-butyl-5-(5-((2S,4S)-2-(2,5-difluorophenyl)-4-fluoropyrrolidin-1-yl)pyrazolo[1,5-a]pyrimidin-3-yl)-1,3,4-oxadiazole], the IC50 in experiment [1] was greater than 100 nM; in experiment [2], greater than 1000 nM; in experiment [3], greater than 1000 nM.

Regarding `COc1ncc(F)cc1C1CCCN1c1ccn2ncc(-c3nnc(C(C)(C)C)o3)c2n1` (stereo not drawn) [Chemical Compound 28, 2-tert-butyl-5-(5-(2-(5-fluoro-2-methoxypyridin-3-yl)pyrrolidin-1-yl)pyrazolo[1,5-a]pyrimidin-3-yl)-1,3,4-oxadiazole], the IC50 in experiment [1], in experiment [2] and in experiment [3] was less than 10 nM in each case.

On to `Fc1ccc(F)c(C2CCCN2c2ccn3ncc(-c4cnco4)c3n2)c1` (stereo not drawn) [Chemical Compound 29, 5-(5-(2-(2,5-difluorophenyl)pyrrolidin-1-yl)pyrazolo[1,5-a]pyrimidin-3-yl)oxazole], for which the IC50 in experiment [1] is less than 10 nM; in experiment [2], less than 100 nM; in experiment [3] it was less than 100 nM.

Take `Fc1ccc(F)c(C2CCCN2c2ccn3ncc(-c4cnoc4)c3n2)c1` (stereo not drawn) [Chemical Compound 30, 4-(5-(2-(2,5-difluorophenyl)pyrrolidin-1-yl)pyrazolo[1,5-a]pyrimidin-3-yl)isoxazole]: the 50% inhibitory concentration (IC50) in experiment [1] is less than 10 nM; in experiment [2], less than 100 nM; in experiment [3], less than 100 nM.
